{"source": "patent US20100267561A1", "about": "“HERBICIDAL PYRIDAZINONE DERIVATIVES” (priority 2007, published 2010)", "assay_type_in_all_cases": "in vivo", "key": {"[1]": {"system": "barnyardgrass (Echinochloa crus-galli)", "test": "Test A pre-/postemergence plant response", "procedure,_shortened": "(§1)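 Ratings run 0–100 (100 = complete control), assigned visually against untreated controls roughly 10 days after treatment in a greenhouse. Compounds, formulated in non-phytotoxic solvent containing surfactant, were applied as a soil-directed preemergence spray and concurrently postemergence to one- to two-leaf plants 2–10 cm tall.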"}, "corn (Zea mays)": {"system": "corn (Zea mays)", "test": "Test A pre-/postemergence plant response", "procedure,_shortened": "as §1"}, "[2]": {"system": "giant foxtail (Setaria faberi)", "test": "Test A pre-/postemergence plant response", "procedure,_shortened": "as §1"}, "[3]": {"system": "large crabgrass (Digitaria sanguinalis)", "test": "Test A pre-/postemergence plant response", "procedure,_shortened": "as §1"}, "[4]": {"system": "morningglory (Ipomoea coccinea)", "test": "Test A pre-/postemergence plant response", "procedure,_shortened": "as §1"}, "[5]": {"system": "pigweed (Amaranthus retroflexus)", "test": "Test A pre-/postemergence plant response", "procedure,_shortened": "as §1"}, "[6]": {"system": "velvetleaf (Abutilon theophrasti)", "test": "Test A pre-/postemergence plant response", "procedure,_shortened": "as §1"}, "[7]": {"system": "wheat (Triticum aestivum)", "test": "Test A pre-/postemergence plant response", "procedure,_shortened": "as §1"}, "[8]": {"system": "barnyardgrass (Echinochloa crus-galli)", "test": "Test B flooded paddy test plant response", "procedure,_shortened": "(§2)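 Paddy-water application to 2-leaf plants in pots held under 3 cm of flooding; response is a 0–100 visual control rating against controls after 13 to 15 days, and a dash marks a missing result.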"}, "[9]": {"system": "ducksalad (Heteranthera limosa)", "test": "Test B flooded paddy test plant response", "procedure,_shortened": "as §2"}, "rice (Oryza sativa)": {"system": "rice (Oryza sativa)", "test": "Test B flooded paddy test plant response", "procedure,_shortened": "as §2"}, "[10]": {"system": "umbrella sedge (Cyperus difformis)", "test": "Test B flooded paddy test plant response", "procedure,_shortened": "as §2"}, "[11]": {"system": "blackgrass (Alopecurus myosuroides)", "test": "Test A pre-/postemergence plant response", "procedure,_shortened": "as §1"}, "[12]": {"system": "canarygrass (Phalaris minor)", "test": "Test A pre-/postemergence plant response", "details": "125 g ai/ha", "procedure,_shortened": "as §1"}, "[13]": {"details": "Postemergence, 125 g ai/ha, 0 to 100 scale, 0 no effect, 100 complete control"}, "[14]": {"details": "Postemergence, 500 g ai/ha, 0 to 100 scale, 0 no effect, 100 complete control"}, "[15]": {"details": "Preemergence, 125 g ai/ha, 0 to 100 scale (0 no effect, 100 complete control)"}, "[16]": {"details": "Preemergence, 500 g ai/ha, 0 to 100 scale (0 no effect, 100 complete control)"}, "[17]": {"details": "Flood (flooded paddy test), 62 g ai/ha, scale 0 to 100, 0 no effect, 100 complete control"}, "[18]": {"details": "Flood (flooded paddy test), 125 g ai/ha, scale 0 to 100, 0 no effect, 100 complete control"}, "[19]": {"details": "Flood (flooded paddy test), 250 g ai/ha, scale 0 to 100, 0 no effect, 100 complete control"}, "[20]": {"details": "Flood, 31 g ai/ha, scale 0 to 100"}, "[21]": {"details": "Postemergence, 31 g ai/ha, 0 to 100 scale, 0 no effect, 100 complete control"}, "[22]": {"details": "Preemergence, 31 g ai/ha, 0 to 100 scale, 0 is no effect, 100 is complete control"}, "[23]": {"details": "Flood, 62 g ai/ha, scale 0 to 100"}}, "data": [{"smiles": "CCn1ncc(O)c(-c2cn(-c3ccc(Cl)cc3)nc2C)c1=O", "note": "[Compound 65]", "values": [{"measurement": "Plant response rating, Barnyardgrass", "setting": "[1]; [13]", "value": 0}, {"measurement": "Plant response rating, Barnyardgrass", "setting": "[1]; [14]", "value": 0}, {"measurement": "Plant response rating, Barnyardgrass", "setting": "[1]; [15]", "value": 0}, {"measurement": "Plant response rating, Barnyardgrass", "setting": "[1]; [16]", "value": 0}, {"measurement": "Plant response rating, Corn", "setting": "corn (Zea mays); [13]", "value": 0}, {"measurement": "Plant response rating, Corn", "setting": "corn (Zea mays); [14]", "value": 0}, {"measurement": "Plant response rating, Corn", "setting": "corn (Zea mays); [15]", "value": 0}, {"measurement": "Plant response rating, Corn", "setting": "corn (Zea mays); [16]", "value": 0}, {"measurement": "Plant response rating, Foxtail, Giant", "setting": "[2]; [13]", "value": 0}, {"measurement": "Plant response rating, Foxtail, Giant", "setting": "[2]; [14]", "value": 20}, {"measurement": "Plant response rating, Foxtail, Giant", "setting": "[2]; [15]", "value": 0}, {"measurement": "Plant response rating, Foxtail, Giant", "setting": "[2]; [16]", "value": 90}, {"measurement": "Plant response rating, Crabgrass, Large", "setting": "[3]; [13]", "value": 0}, {"measurement": "Plant response rating, Crabgrass, Large", "setting": "[3]; [14]", "value": 20}, {"measurement": "Plant response rating, Crabgrass, Large", "setting": "[3]; [15]", "value": 0}, {"measurement": "Plant response rating, Crabgrass, Large", "setting": "[3]; [16]", "value": 0}, {"measurement": "Plant response rating, Morningglory", "setting": "[4]; [13]", "value": 0}, {"measurement": "Plant response rating, Morningglory", "setting": "[4]; [14]", "value": 0}, {"measurement": "Plant response rating, Morningglory", "setting": "[4]; [15]", "value": 0}, {"measurement": "Plant response rating, Morningglory", "setting": "[4]; [16]", "value": 0}, {"measurement": "Plant response rating, Pigweed", "setting": "[5]; [13]", "value": 0}, {"measurement": "Plant response rating, Pigweed", "setting": "[5]; [14]", "value": 0}, {"measurement": "Plant response rating, Pigweed", "setting": "[5]; [15]", "value": 0}, {"measurement": "Plant response rating, Pigweed", "setting": "[5]; [16]", "value": 0}, {"measurement": "Plant response rating, Velvetleaf", "setting": "[6]; [13]", "value": 0}, {"measurement": "Plant response rating, Velvetleaf", "setting": "[6]; [14]", "value": 0}, {"measurement": "Plant response rating, Velvetleaf", "setting": "[6]; [15]", "value": 0}, {"measurement": "Plant response rating, Velvetleaf", "setting": "[6]; [16]", "value": 0}, {"measurement": "Plant response rating, Wheat", "setting": "[7]; [13]", "value": 0}, {"measurement": "Plant response rating, Wheat", "setting": "[7]; [14]", "value": 0}, {"measurement": "Plant response rating, Wheat", "setting": "[7]; [15]", "value": 0}, {"measurement": "Plant response rating, Wheat", "setting": "[7]; [16]", "value": 0}, {"measurement": "Plant response rating, Barnyardgrass", "setting": "[8]; [17]", "value": 0}, {"measurement": "Plant response rating, Barnyardgrass", "setting": "[8]; [18]", "value": 0}, {"measurement": "Plant response rating, Barnyardgrass", "setting": "[8]; [19]", "value": 0}, {"measurement": "Plant response rating, Barnyardgrass", "setting": "[8]; [20]", "value": 0}, {"measurement": "Plant response rating, Ducksalad", "setting": "[9]; [17]", "value": 0}, {"measurement": "Plant response rating, Ducksalad", "setting": "[9]; [18]", "value": 0}, {"measurement": "Plant response rating, Ducksalad", "setting": "[9]; [19]", "value": 40}, {"measurement": "Plant response rating, Ducksalad", "setting": "[9]; [20]", "value": 0}, {"measurement": "Plant response rating, Rice", "setting": "rice (Oryza sativa); [17]", "value": 0}, {"measurement": "Plant response rating, Rice", "setting": "rice (Oryza sativa); [18]", "value": 0}, {"measurement": "Plant response rating, Rice", "setting": "rice (Oryza sativa); [19]", "value": 15}, {"measurement": "Plant response rating, Rice", "setting": "rice (Oryza sativa); [20]", "value": 0}, {"measurement": "Plant response rating, Sedge, Umbrella", "setting": "[10]; [17]", "value": 0}, {"measurement": "Plant response rating, Sedge, Umbrella", "setting": "[10]; [18]", "value": 0}, {"measurement": "Plant response rating, Sedge, Umbrella", "setting": "[10]; [19]", "value": 80}, {"measurement": "Plant response rating, Sedge, Umbrella", "setting": "[10]; [20]", "value": 0}]}, {"smiles": "CCc1cc(-c2ccc(Cl)cc2)nn1-c1c(O)c(C)nn(C)c1=O", "note": "[Compound 86]", "values": [{"measurement": "Plant response rating, Barnyardgrass", "setting": "[1]; [21]", "value": 100}, {"measurement": "Plant response rating, Barnyardgrass", "setting": "[1]; [13]", "value": 100}, {"measurement": "Plant response rating, Barnyardgrass", "setting": "[1]; [22]", "value": 50}, {"measurement": "Plant response rating, Barnyardgrass", "setting": "[1]; [15]", "value": 100}, {"measurement": "Plant response rating, Blackgrass", "setting": "[11]; [21]", "value": 80}, {"measurement": "Plant response rating, Blackgrass", "setting": "[11]; [13]", "value": 100}, {"measurement": "Plant response rating, Blackgrass", "setting": "[11]; [22]", "value": 50}, {"measurement": "Plant response rating, Blackgrass", "setting": "[11]; [15]", "value": 90}, {"measurement": "Plant response rating, Canarygrass", "setting": "[12]; Postemergence, 0 to 100 scale, 0 no effect, 100 complete control", "value": 100}, {"measurement": "Plant response rating, Canarygrass", "setting": "[12]; Preemergence, 0 to 100 scale (0 no effect, 100 complete control)", "value": 100}, {"measurement": "Plant response rating, Corn", "setting": "corn (Zea mays); [21]", "value": 30}, {"measurement": "Plant response rating, Corn", "setting": "corn (Zea mays); [13]", "value": 90}, {"measurement": "Plant response rating, Corn", "setting": "corn (Zea mays); [22]", "value": 0}, {"measurement": "Plant response rating, Corn", "setting": "corn (Zea mays); [15]", "value": 40}, {"measurement": "Plant response rating, Foxtail, Giant", "setting": "[2]; [21]", "value": 70}, {"measurement": "Plant response rating, Foxtail, Giant", "setting": "[2]; [13]", "value": 90}, {"measurement": "Plant response rating, Foxtail, Giant", "setting": "[2]; [22]", "value": 10}, {"measurement": "Plant response rating, Foxtail, Giant", "setting": "[2]; [15]", "value": 100}, {"measurement": "Plant response rating, Crabgrass, Large", "setting": "[3]; [21]", "value": 70}, {"measurement": "Plant response rating, Crabgrass, Large", "setting": "[3]; [13]", "value": 100}, {"measurement": "Plant response rating, Crabgrass, Large", "setting": "[3]; [22]", "value": 10}, {"measurement": "Plant response rating, Crabgrass, Large", "setting": "[3]; [15]", "value": 90}, {"measurement": "Plant response rating, Pigweed", "setting": "[5]; [21]", "value": 0}, {"measurement": "Plant response rating, Pigweed", "setting": "[5]; [13]", "value": 0}, {"measurement": "Plant response rating, Pigweed", "setting": "[5]; [22]", "value": 0}, {"measurement": "Plant response rating, Pigweed", "setting": "[5]; [15]", "value": 0}, {"measurement": "Plant response rating, Wheat", "setting": "[7]; [21]", "value": 20}, {"measurement": "Plant response rating, Wheat", "setting": "[7]; [13]", "value": 50}, {"measurement": "Plant response rating, Wheat", "setting": "[7]; [22]", "value": 0}, {"measurement": "Plant response rating, Wheat", "setting": "[7]; [15]", "value": 40}, {"measurement": "Plant response rating, Barnyardgrass", "setting": "[8]; [19]", "value": 40}, {"measurement": "Plant response rating, Barnyardgrass", "setting": "[8]; [23]", "value": 0}, {"measurement": "Plant response rating, Ducksalad", "setting": "[9]; [19]", "value": 65}, {"measurement": "Plant response rating, Ducksalad", "setting": "[9]; [23]", "value": 30}, {"measurement": "Plant response rating, Rice", "setting": "rice (Oryza sativa); [19]", "value": 35}, {"measurement": "Plant response rating, Rice", "setting": "rice (Oryza sativa); [23]", "value": 30}, {"measurement": "Plant response rating, Sedge, Umbrella", "setting": "[10]; [19]", "value": 55}, {"measurement": "Plant response rating, Sedge, Umbrella", "setting": "[10]; [23]", "value": 0}]}]}
